Assay results reported in ChEMBL document CHEMBL1201862, “PubChem BioAssay data set” (2004).
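Assay format: 96-well plates, 48-hour exposure. GI50 marks 50% less growth.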 Active and inactive are the calls of the source. Rule as the data show it: active = GI50 up to about 1.1 µM and inactive = higher.

Legend:
Assay in all cases: NCI-60 cell line screen, 48 h
HOP-92 = tested on: HOP-92
LOX IMVI = tested on: LOX IMVI
Hs-578T = tested on: Hs-578T
MDA-MB-435 = tested on: MDA-MB-435
IGROV-1 = tested on: IGROV-1
Malme-3M = tested on: Malme-3M
OVCAR-5 = tested on: OVCAR-5
CCRF-CEM = tested on: CCRF-CEM
SK-MEL-5 = tested on: SK-MEL-5
MDA-MB-231 = tested on: MDA-MB-231
T47D = tested on: T47D
OVCAR-3 = tested on: OVCAR-3
SF-295 = tested on: SF-295
HCC 2998 = tested on: HCC 2998
DU-145 = tested on: DU-145
SN12C = tested on: SN12C
NCI-H460 = tested on: NCI-H460
CAKI-1 = tested on: CAKI-1
UACC-62 = tested on: UACC-62
SK-MEL-2 = tested on: SK-MEL-2
SNB-19 = tested on: SNB-19
MOLT-4 = tested on: MOLT-4
SNB-75 = tested on: SNB-75
RPMI-8226 = tested on: RPMI-8226
RXF 393 = tested on: RXF 393
NCI-H226 = tested on: NCI-H226
OVCAR-8 = tested on: OVCAR-8
OVCAR-4 = tested on: OVCAR-4
M14 = tested on: M14
HCT-116 = tested on: HCT-116
MDA-N = tested on: MDA-N
SK-MEL-28 = tested on: SK-MEL-28
NCI-H23 = tested on: NCI-H23
UACC-257 = tested on: UACC-257
SF-268 = tested on: SF-268
SW-620 = tested on: SW-620
U-251 = tested on: U-251
ACHN = tested on: ACHN
HOP-62 = tested on: HOP-62
SK-OV-3 = tested on: SK-OV-3
A549 = tested on: A549
A498 = tested on: A498
HT-29 = tested on: HT-29
HCT-15 = tested on: HCT-15
NCI/ADR-RES = tested on: NCI/ADR-RES
786-0 = tested on: 786-0
TK-10 = tested on: TK-10
K562 = tested on: K562
UO-31 = tested on: UO-31
HL-60 = tested on: HL-60
BT-549 = tested on: BT-549
SR = tested on: SR
COLO 205 = tested on: COLO 205
EKVX = tested on: EKVX
SF-539 = tested on: SF-539
NCI-H522 = tested on: NCI-H522

COc1c(OC)c(OC)c(-c2cc(=O)c3c(OC)c(OC)c(OC)c(OC)c3o2)c(OC)c1OC
GI50 (HOP-92): 21.3 µM (inactive)
GI50 (LOX IMVI): 30.9 µM (inactive)
GI50 (Hs-578T): 52.5 µM (inactive)
GI50 (MDA-MB-435): 34.5 µM (inactive)
GI50 (IGROV-1): 25.5 µM (inactive)
GI50 (Malme-3M): 47 µM (inactive)
GI50 (OVCAR-5): > 100 µM (inactive)
GI50 (CCRF-CEM): 34 µM (inactive)
GI50 (SK-MEL-5): 24.2 µM (inactive)
GI50 (MDA-MB-231): 29.9 µM (inactive)
GI50 (T47D): 9.14 µM (inactive)
GI50 (OVCAR-3): 16.3 µM (inactive)
GI50 (SF-295): 40.2 µM (inactive)
GI50 (HCC 2998): 28.7 µM (inactive)
GI50 (DU-145): 62.5 µM (inactive)
GI50 (SN12C): 50.5 µM (inactive)
GI50 (NCI-H460): 31.3 µM (inactive)
GI50 (CAKI-1): 43.4 µM (inactive)
GI50 (UACC-62): 34.3 µM (inactive)
GI50 (SK-MEL-2): 56.6 µM (inactive)
GI50 (SNB-19): 51.9 µM (inactive)
GI50 (MOLT-4): 32.7 µM (inactive)
GI50 (SNB-75): 57.5 µM (inactive)
GI50 (RPMI-8226): 60.8 µM (inactive)
GI50 (RXF 393): 27.3 µM (inactive)
GI50 (NCI-H226): 54.2 µM (inactive)
GI50 (OVCAR-8): 31.1 µM (inactive)
GI50 (OVCAR-4): 18.1 µM (inactive)
GI50 (M14): 44 µM (inactive)
GI50 (HCT-116): 20.6 µM (inactive)
GI50 (MDA-N): 38 µM (inactive)
GI50 (SK-MEL-28): 90.2 µM (inactive)
GI50 (NCI-H23): 22.2 µM (inactive)
GI50 (UACC-257): 34.5 µM (inactive)
GI50 (SF-268): 69.5 µM (inactive)
GI50 (SW-620): 30 µM (inactive)
GI50 (U-251): 30.1 µM (inactive)
GI50 (ACHN): 32.7 µM (inactive)
GI50 (HOP-62): 81.8 µM (inactive)
GI50 (SK-OV-3): 71.1 µM (inactive)
GI50 (A549): 35 µM (inactive)
GI50 (A498): 31.3 µM (inactive)
GI50 (HT-29): 28.8 µM (inactive)
GI50 (HCT-15): 26.7 µM
GI50 (NCI/ADR-RES): 23.9 µM (inactive)
GI50 (786-0): 21.5 µM (inactive)
GI50 (TK-10): 29.3 µM (inactive)
GI50 (K562): 41.1 µM (inactive)
GI50 (UO-31): 29.2 µM (inactive)
GI50 (HL-60): 37.2 µM (inactive)
GI50 (BT-549): 34.5 µM (inactive)
GI50 (SR): > 100 µM (inactive)
GI50 (COLO 205): 37.4 µM (inactive)
GI50 (EKVX): 59.8 µM (inactive)
GI50 (SF-539): 48.9 µM (inactive)
GI50 (NCI-H522): 16.2 µM (inactive)
